# Source: patent US20190307843A1, “SINGLE DOSE METHODS FOR PREVENTING AND TREATING FUNGAL INFECTIONS” (Cidara Therapeutics, Inc., priority 2016, published 2019)
# Where two headings read alike, the source gives them in different places. Starred links: 1 amine or outer side, 2 acyl side, 3 side chain; linkers in the order of their positions; H or OH if unused. Positions of bridges follow the written chain, without caps; N, C: chain ends. Non-standard residues stand in square brackets, D forms with d. Residues, ends and D or L forms follow the SMILES beside them. *: point of attachment. hTyr(3S-OH,4S-OH,3'-OSO3H) = N[C@H](C(=O)O)[C@H](O)[C@@H](O)c1ccc(O)c(OS(=O)(=O)O)c1; Orn(4R-OH,5R-OH) = O=C([C@H](C[C@@H](O)[C@@H](O)N[*:3])N[*:1])[*:2]; Pro(3S-OH,4S-Me) = C[C@H]1CN[C@H](C(=O)O)[C@H]1O; X1 = CCCCCOc1ccc(-c2cc(-c3ccc(C(=O)*)cc3)no2)cc1; Gln(3R-OH) = NC(=O)C[C@@H](O)[C@H](N)C(=O)O; Hyp = O=C(O)[C@@H]1C[C@@H](O)CN1
# Legend:
# Candida auris strains = test: Candida auris antifungal susceptibility testing (CLSI M27-A3), 38 strains; format: cell-based; details: Candidozyma auris, read-out: MIC
# A. fumigatus AF293 = test: Murine model of pulmonary aspergillosis (Example 19), terminal lung burden; format: in vivo, Aspergillus fumigatus; details: Micafungin 5 mg/kg IP Day −1
# Description: A secondary endpoint for the study was terminal lung tissue burden. Immediately following confirmation of death, carcasses were frozen at −20° C. prior to tissue dissection and processing. The frozen carcasses were thawed at room temperature, the lungs removed and placed into pre-weighed bead-beating tubes containing 2 mL of PBS and subjected to mechanical disruption. Organ homogenates were diluted further in PBS and quantitatively cultured for A. fumigatus onto SABC and incubated at 30° C. for 24-48 hours.
# 2. Lung tissue burden data were analysed using the non-parametric Kruskal-Wallis test and if this was statistically significant all pairwise comparisons were analyzed (Conover-Inman).
compound,measurement,setting,value
"CCCCCOc1ccc(-c2cc(-c3ccc(C(=O)N[C@H]4C[C@@H](O)[C@@H](O)NC(=O)[C@@H]5[C@@H](O)[C@@H](C)CN5C(=O)[C@H]([C@H](O)CC(N)=O)NC(=O)[C@H]([C@H](O)[C@@H](O)c5ccc(O)c(OS(=O)(=O)O)c5)NC(=O)[C@@H]5C[C@@H](O)CN5C(=O)[C@H]([C@@H](C)O)NC4=O)cc3)no2)cc1 [Micafungin, micafungin] (X1-[Orn(4R-OH,5R-OH)]T[Hyp][hTyr(3S-OH,4S-OH,3'-OSO3H)][Gln(3R-OH)][Pro(3S-OH,4S-Me)]; lactam 1-C)",MIC,"Candida auris strains; 24 h, strain 38 VCPI 213/P/15, 24 h",0.25 µg/mL
same,MIC,Candida auris strains; 24 h,16 µg/mL
same,MIC,"Candida auris strains; 48 h, strain 1 VPCI 669/P/12, 48 h",0.25 µg/mL
same,MIC,"Candida auris strains; 48 h, strain 2 VCPI 671/P/12, 48 h",0.25 µg/mL
same,MIC,"Candida auris strains; 48 h, strain 3 VCPI 674/P/12, 48 h",0.125 µg/mL
same,MIC,"Candida auris strains; 48 h, strain 4 VCPI 683/P/12, 48 h",0.25 µg/mL
same,MIC,"Candida auris strains; 48 h, strain 5 VCPI 692/P/12, 48 h",0.25 µg/mL
same,MIC,"Candida auris strains; 48 h, strain 6 VCPI 712/P/12, 48 h",0.125 µg/mL
same,MIC,"Candida auris strains; 48 h, strain 7 VCPI 471/P/13, 48 h",0.25 µg/mL
same,MIC,"Candida auris strains; 48 h, strain 8 VCPI 475/P/13, 48 h",0.25 µg/mL
same,MIC,"Candida auris strains; 48 h, strain 9 VCPI 478/P/13, 48 h",0.125 µg/mL
same,MIC,"Candida auris strains; 48 h, strain 10 VCPI 479/P/13, 48 h",0.125 µg/mL
same,MIC,"Candida auris strains; 48 h, strain 11 VCPI 480/P/13, 48 h",0.125 µg/mL
same,MIC,"Candida auris strains; 48 h, strain 12 VCPI 482/P/13, 48 h",0.125 µg/mL
same,MIC,"Candida auris strains; 48 h, strain 13 VCPI 483/P/13, 48 h",0.125 µg/mL
same,MIC,"Candida auris strains; 48 h, strain 14 VCPI 1130/P/13, 48 h",0.125 µg/mL
same,MIC,"Candida auris strains; 48 h, strain 15 VCPI 1132/P/13, 48 h",0.125 µg/mL
same,MIC,"Candida auris strains; 48 h, strain 16 VCPI 1133/P/13, 48 h",> 16 µg/mL
same,MIC,"Candida auris strains; 48 h, strain 17 VCPI 105/P/14, 48 h",0.125 µg/mL
same,MIC,"Candida auris strains; 48 h, strain 18 VCPI 107/P/14, 48 h",0.06 µg/mL
same,MIC,"Candida auris strains; 48 h, strain 19 VCPI 510/P/14, 48 h",0.125 µg/mL
same,MIC,"Candida auris strains; 48 h, strain 20 VCPI 511/P/14, 48 h",0.125 µg/mL
same,MIC,"Candida auris strains; 48 h, strain 21 VCPI 512/P/14, 48 h",0.125 µg/mL
same,MIC,"Candida auris strains; 48 h, strain 22 VCPI 513/P/14, 48 h",0.25 µg/mL
same,MIC,"Candida auris strains; 48 h, strain 23 VCPI 514/P/14, 48 h",0.25 µg/mL
same,MIC,"Candida auris strains; 48 h, strain 24 VCPI 250/P/14, 48 h",0.125 µg/mL
same,MIC,"Candida auris strains; 48 h, strain 25 VCPI 265/P/14, 48 h",> 16 µg/mL
same,MIC,"Candida auris strains; 48 h, strain 26 VCPI 266/P/14, 48 h",0.125 µg/mL
same,MIC,"Candida auris strains; 48 h, strain 27 VCPI 462/P/14, 48 h",> 16 µg/mL
same,MIC,"Candida auris strains; 48 h, strain 28 VCPI 463/P/14, 48 h",0.125 µg/mL
same,MIC,"Candida auris strains; 48 h, strain 29 VCPI 467/P/14, 48 h",0.25 µg/mL
same,MIC,"Candida auris strains; 48 h, strain 31 VCPI 478/P/14, 48 h",0.5 µg/mL
same,MIC,"Candida auris strains; 48 h, strain 32 VCPI 518/P/14, 48 h",0.5 µg/mL
same,MIC,"Candida auris strains; 48 h, strain 33 VCPI 550/P/14, 48 h",0.5 µg/mL
same,MIC,"Candida auris strains; 48 h, strain 34 VCPI 714/P/14, 48 h",0.25 µg/mL
same,MIC,"Candida auris strains; 48 h, strain 35 VCPI 717/P/14, 48 h",0.125 µg/mL
same,MIC,"Candida auris strains; 48 h, strain 36 VCPI 1060/P/14, 48 h",0.25 µg/mL
same,MIC,"Candida auris strains; 48 h, strain 37 VCPI 74/P/15, 48 h",0.25 µg/mL
same,MIC,"Candida auris strains; 48 h, strain 38 VCPI 213/P/15, 48 h",0.25 µg/mL
same,MIC,Candida auris strains; 48 h,> 16 µg/mL
same,Group Geometric mean (lung burden),A. fumigatus AF293,6.61 × 10^3 CFU/g
same,Log10 Group Geometric mean (lung burden),A. fumigatus AF293,3.82 CFU/g
same,Log10 reduction from vehicle control,A. fumigatus AF293,0.35 CFU/g
